Results as given in patent US20260159536A1, “AKR1C3-ACTIVATED DNA ALKYLATING AGENT, AND MEDICAL APPLICATION THEREOF” (ASCENTAWITS PHARMACEUTICALS, LTD., priority 2021, published 2026).

Legend:
[1] = system: HuPrime model LI6280 human liver cancer; experiment: In vivo pharmacodynamics, liver cancer LI6280 PDX model; design: species or system BALB/c nude mice; details: for Tumor volume: 4.5 mg/kg i.v.
Procedure: Experiment Instruction: BALB/c nude mice were subcutaneously inoculated with HuPrime® model LI6280 tumour blocks to establish a subcutaneous transplantation tumour model of human liver cancer. […] The efficacy was evaluated according to the relative tumor inhibition rate TGI (%), and the safety was evaluated according to the change in body weight and the death of the animals.

[2] = system: HuPrime model LU2505 human lung cancer; experiment: In vivo pharmacodynamics, lung cancer LU2505 PDX model; design: species or system BALB/c nude mice; details: for Tumor volume (x ± S): in mm³ (unit assumed)

Which results are given for `O=[N+]([O-])c1ccc(C(OP(=O)(N2CC2)N2CC2)C(F)(F)F)cc1Oc1ccc(-c2ccc(F)cc2)c(F)c1` (racemic) [Compound A]?
Relative tumor volume (x ± S) ([1]; 4.5 mg/kg i.v. QWx3, Day 17): 20.79 ± 1.15; T/C (%) ([1]; 4.5 mg/kg i.v. QWx3, Day 17): 101.41%; TGI (%) ([1]; 4.5 mg/kg i.v. QWx3, Day 17): −1.41%; Tumor volume (x ± S) ([1]; 4.5 mg/kg i.v. QWx3, Day 17, in mm³ (unit assumed)): 2201.20 ± 287.44; Tumor volume ([1]; Day 0): 103.98 mm^3; Tumor volume ([1]; Day 3): 150.33 mm^3; Tumor volume ([1]; Day 7): 318.74 mm^3; Tumor volume ([1]; Day 10): 683.99 mm^3; Tumor volume ([1]; Day 14): 1404.42 mm^3; Tumor volume ([1]; Day 17): 2201.20 mm^3; Tumor volume ([1]; Day 21): 2739.12 mm^3; Tumor volume ([1]; Day 24): 3311.77 mm^3; Tumor volume ([1]; Day 28): 3362.07 mm^3; Relative tumor volume (x ± S) ([2]; 1.25 mg/kg i.v. QWx3, Day 28): 4.61 ± 1.57; T/C (%) ([2]; 1.25 mg/kg i.v. QWx3, Day 28): 43.14%; TGI (%) ([2]; 1.25 mg/kg i.v. QWx3, Day 28): 56.86%; Tumor volume (x ± S) ([2]; 1.25 mg/kg i.v. QWx3, Day 28): 485.95 ± 175.25; Tumor volume ([2]; 1.25 mg/kg i.v., Day 0): 103.28 mm^3; Tumor volume ([2]; 1.25 mg/kg i.v., Day 4): 156.32 mm^3; Tumor volume ([2]; 1.25 mg/kg i.v., Day 7): 231.55 mm^3; Tumor volume ([2]; 1.25 mg/kg i.v., Day 11): 242.12 mm^3; Tumor volume ([2]; 1.25 mg/kg i.v., Day 14): 291.72 mm^3; Tumor volume ([2]; 1.25 mg/kg i.v., Day 18): 383.24 mm^3; Tumor volume ([2]; 1.25 mg/kg i.v., Day 21): 434.92 mm^3; Tumor volume ([2]; 1.25 mg/kg i.v., Day 25): 478.15 mm^3; Tumor volume ([2]; 1.25 mg/kg i.v., Day 28): 485.95 mm^3; Relative tumor volume (x ± S) ([2]; 2.5 mg/kg i.v. QWx3, Day 28): 1.11 ± 0.56; T/C (%) ([2]; 2.5 mg/kg i.v. QWx3, Day 28): 10.43%; TGI (%) ([2]; 2.5 mg/kg i.v. QWx3, Day 28): 89.57%; Tumor volume (x ± S) ([2]; 2.5 mg/kg i.v. QWx3, Day 28): 102.06 ± 47.51; Tumor volume ([2]; 2.5 mg/kg i.v., Day 0): 103.26 mm^3; Tumor volume ([2]; 2.5 mg/kg i.v., Day 4): 149.02 mm^3; Tumor volume ([2]; 2.5 mg/kg i.v., Day 7): 131.34 mm^3; Tumor volume ([2]; 2.5 mg/kg i.v., Day 11): 109.62 mm^3; Tumor volume ([2]; 2.5 mg/kg i.v., Day 14): 116.57 mm^3; Tumor volume ([2]; 2.5 mg/kg i.v., Day 18): 113.09 mm^3; Tumor volume ([2]; 2.5 mg/kg i.v., Day 21): 103.18 mm^3; Tumor volume ([2]; 2.5 mg/kg i.v., Day 25): 92.38 mm^3; Tumor volume ([2]; 2.5 mg/kg i.v., Day 28): 102.06 mm^3; Relative tumor volume (x ± S) ([2]; 5 mg/kg i.v. QWx3, Day 28): 0.17 ± 0.07; T/C (%) ([2]; 5 mg/kg i.v. QWx3, Day 28): 1.60%; TGI (%) ([2]; 5 mg/kg i.v. QWx3, Day 28): 98.40%; Tumor volume (x ± S) ([2]; 5 mg/kg i.v. QWx3, Day 28): 19.00 ± 8.08; Tumor volume ([2]; 5 mg/kg i.v., Day 0): 103.23 mm^3; Tumor volume ([2]; 5 mg/kg i.v., Day 4): 139.41 mm^3; Tumor volume ([2]; 5 mg/kg i.v., Day 7): 111.31 mm^3; Tumor volume ([2]; 5 mg/kg i.v., Day 11): 62.41 mm^3; Tumor volume ([2]; 5 mg/kg i.v., Day 14): 42.40 mm^3; Tumor volume ([2]; 5 mg/kg i.v., Day 18): 34.32 mm^3; Tumor volume ([2]; 5 mg/kg i.v., Day 21): 30.63 mm^3; Tumor volume ([2]; 5 mg/kg i.v., Day 25): 20.52 mm^3; Tumor volume ([2]; 5 mg/kg i.v., Day 28): 19.00 mm^3; toxic side effects (body weight change) ([2]; 1.25, 2.5, 5 mg/kg i.v. QWx3): without toxic side effects
